This passage reports solubility, MIC50 and Solubility results from US8420676B2, “Oxazolidinone derivatives” (Dong-A Pharmaceuticals Co. Ltd., priority 2003, dated 2013).

SMILES strings stand for the structures. In brackets after ≈: the same amount, converted by molar mass. Where a name gives a salt, the structure may show the parent alone.

One may read the solubility as how much of the substance goes into solution per volume. High values mean much dissolved substance, low ones little dissolved substance. For orientation: Solubility means how much of the substance goes into solution per volume. A high value points to much dissolved substance.

The nature of data set [1]: Assay for solubility in distilled water (turbidity by naked eye). The class given is physicochemical. The note with it: average of three runs; for solubility at 2 min: thermodynamic from solid. Here is the method: The derivatives of the present invention were added to 200 μl of distilled water and then the solution was stirred for 2 minutes. The turbidity of the solution was watched through naked eye.
When the derivatives were not dissolved completely, 50 μl of distilled water was added to the solution and then the turbidity of the solution was assayed in the above manner to find a point of becoming transparent solution.
When 2 mg of the derivatives was first added to distilled water and completely dissolved so that the solution became transparent, 2 mg of the derivatives was added more to the solution and then state of the solution was watched. The derivatives of the present invention were added to the five times and then solubility of the solution was assayed for. The assay for solubility was carried out the three times repeatedly in the above method and the results were averaged.

The test system of data set [2] is vancomycin resistant Enterococci (VRE). In words: Assay for in vitro antibacterial activity, agar dilution (VRE). To be noted: Enterococcus, read-out: Minimum Inhibitory Concentration (MIC50) VRE. A general note: In agar dilution, organisms are placed on agar that contains the substance at set levels.
Data set [3] relates to methicillin resistant Staphylococcus aureus (MRSA). In words: Assay for in vitro antibacterial activity, agar dilution (MRSA). To be noted: read-out: Minimum Inhibitory Concentration (MIC50) MRSA.

In turn, `Cn1nnnc1-c1ccc(-c2ccc(N3C[C@H](COC(=O)CN)OC3=O)cc2F)cn1` [Compound 62, (R)-3-(4-(2-(1-methyltetrazol-5-yl)pyridin-5-yl)-3-fluorophenyl)-5-glycyloxymethyl oxazolidin-2-one trifluoroacetic acid] registered a solubility at 2 min in data set [1] of 28 mg/mL (≈ 65500 µM). As for `Cc1nnc(-c2ccc(-c3ccc(N4C[C@H](COP(=O)([O][Na+])[O][Na+])OC4=O)cc3F)cn2)o1` [Compound 60, (R)-[3-(4-(2-(2-methyl-[1,3,4]oxadiazol-5-yl)pyridin-5-yl)-3-fluorophenyl)-2-oxo-5-oxazolidinyl]methyl disodiumphosphate], in data set [1], the solubility at 2 min is more than 50 mg/mL. The MIC50 in data set [2] was found to be 1 µg/mL; in data set [3] it was 0.5 µg/mL.

Turning to `Cc1nnc(-c2ccc(-c3ccc(N4C[C@H](COC(=O)[C@@H](N)C(C)C)OC4=O)cc3F)cn2)o1.Cl` [Compound 54, (R)-3-(4-(2-(2-methyl-[1,3,4]oxadiazol-5-yl)pyridin-5-yl)-3-fluorophenyl)-5-(L-valyloxy)methyl oxazolidin-2-one hydrochloride], in data set [1], the solubility at 2 min came out at 2.9 mg/mL. Also, the results for the MIC50 in data set [2] and in data set [3] were 1 µg/mL and 0.5 µg/mL, respectively. `Cc1nnc(-c2ccc(-c3ccc(N4C[C@H](COC(=O)CCN)OC4=O)cc3F)cn2)o1` [Compound 57, (R)-3-(4-(2-(2-methyl-[1,3,4]oxadiazol-5-yl)pyridin-5-yl)-3-fluorophenyl)-5-(β-alanyloxy)methyl oxazolidin-2-one trifluoroacetic acid] had a solubility at 2 min in data set [1] of more than 50 mg/mL.

In the case of `Cn1nnc(-c2ccc(-c3ccc(N4C[C@H](COC(=O)[C@@H]5CCCN5)OC4=O)cc3F)cn2)n1` [Compound 46, (R)-3-(4-(2-(2-methyltetrazol-5-yl)pyridin-5-yl)-3-fluorophenyl)-5-(L-prolinyloxy)methyl oxazolidin-2-one trifluoroacetic acid], the solubility at 2 min in data set [1] is less than 1.63 mg/mL. In data set [1] (hydrochloride), `Cn1nnc(-c2ccc(-c3ccc(N4C[C@H](COC(=O)CCN)OC4=O)cc3F)cn2)n1` [Compound 50, (R)-3-(4-(2-(2-methyltetrazol-5-yl)pyridin-5-yl)-3-fluorophenyl)-5-(β-alanyloxy)methyl oxazolidin-2-one hydrochloride] showed a Solubility of 20.4 mg/mL. In data set [1], `Cc1nnc(-c2ccc(-c3ccc(N4C[C@H](COC(=O)[C@H](C)N)OC4=O)cc3F)cn2)o1` [Compound 51, (R)-3-(4-(2-(2-methyl-[1,3,4]oxadiazol-5-yl)pyridin-5-yl)-3-fluorophenyl)-5-(L-alanyloxy)methyl oxazolidin-2-one trifluoroacetic acid] displayed a solubility at 2 min of more than 50 mg/mL. The same measure, in the same setting: the same measure for `CC(C)[C@H](N)C(=O)OC[C@H]1CN(c2ccc(-c3ccc(-c4nnnn4C)nc3)c(F)c2)C(=O)O1` [Compound 66, (R)-3-(4-(2-(1-methyltetrazol-5-yl)pyridin-5-yl)-3-fluorophenyl)-5-(L-valyloxy)methyl oxazolidin-2-one trifluoroacetic acid]: 4.7 mg/mL (≈ 10000 µM). Regarding `CC(=O)NC[C@H]1CN(c2ccc(-c3ccc(-c4cc(COC(=O)CN)on4)nc3)c(F)c2)C(=O)O1` [Compound 3, (S)-3-(4-(2-(5-glycyloxymethylisoxazol-3-yl)pyridin-5-yl)-3-fluorophenyl)-2-oxo-5-oxazolidinylmethyl acetamide trifluoroacetic acid], the MIC50 in data set [2] and in data set [3] was 0.25 µg/mL (≈ 0.517 µM) each time.

The compound `C[C@H](N)C(=O)OC[C@H]1CN(c2ccc(-c3ccc(-c4nnnn4C)nc3)c(F)c2)C(=O)O1` [Compound 64, (R)-3-(4-(2-(1-methyltetrazol-5-yl)pyridin-5-yl)-3-fluorophenyl)-5-(L-alanyloxy)methyl oxazolidin-2-one trifluoroacetic acid] came in with a solubility at 2 min in data set [1] of more than 50 mg/mL. On to `Cc1nc(-c2ccc(-c3ccc(N4C[C@H](CO)OC4=O)cc3F)cc2)oc1C` [Compound 21, (R)-3-(4-(4-(4,5-dimethyloxazol-2-yl)phenyl)-3-fluorophenyl)-5-hydroxymethyl oxazolidin-2-one], for which the MIC50 in data set [2] and in data set [3] was 1 µg/mL (≈ 2.62 µM) throughout.

For `Cl.Cn1nnnc1-c1ccc(-c2ccc(N3C[C@H](COC(=O)CCN)OC3=O)cc2F)cn1` [Compound 69, (R)-3-(4-(2-(1-methyltetrazol-5-yl)pyridin-5-yl)-3-fluorophenyl)-5-(β-alanyloxy)methyl oxazolidin-2-one hydrochloride], the MIC50 was found to be 0.25 µg/mL in data set [2] and 0.5 µg/mL in data set [3]. Consider `Cc1nnc(-c2ccc(-c3ccc(N4C[C@H](COC(=O)[C@@H]5CCCN5)OC4=O)cc3F)cn2)o1` [Compound 55, (R)-3-(4-(2-(2-methyl-[1,3,4]oxadiazol-5-yl)pyridin-5-yl)-3-fluorophenyl)-5-(L-prolinyloxy)methyl oxazolidin-2-one trifluoroacetic acid], for which the concentration in solution in data set [1] (solubility at 2 min) came to 7.2 mg/mL (≈ 15400 µM). Regarding `N#CCc1csc(-c2ccc(-c3ccc(N4C[C@H](CO)OC4=O)cc3F)cc2)n1` [Compound 32, (R)-3-(4-(4-(4-cyanomethylthiazol-2-yl)phenyl)-3-fluorophenyl)-5-hydroxymethyl oxazolidin-2-one], the MIC50 stood at 1 µg/mL (≈ 2.44 µM) in data set [2] and 0.5 µg/mL (≈ 1.22 µM) in data set [3]. For `Cn1nnnc1-c1ccc(-c2ccc(N3C[C@H](Cn4ccnn4)OC3=O)cc2F)cn1` [Compound 71, (R)-3-(4-(2-(1-methyltetrazol-5-yl)pyridin-5-yl)-3-fluorophenyl)-5-([1,2,3]triazol-1-yl)methyl oxazolidin-2-one], the results for the MIC50 in data set [2] and in data set [3] were 0.125 µg/mL (≈ 0.297 µM) and 0.5 µg/mL (≈ 1.19 µM), respectively. With `CC(=O)NC[C@H]1CN(c2ccc(N3CCOCC3)c(F)c2)C(=O)O1` [Zyvox, reference compound], the MIC50 in data set [2] and in data set [3] was 2 µg/mL (≈ 5.93 µM) in each case. On to `N#CCc1csc(-c2ccc(-c3ccc(N4C[C@H](COC(=O)CN)OC4=O)cc3F)cc2)n1` [Compound 34, (R)-3-(4-(4-(4-cyanomethylthiazol-2-yl)phenyl)-3-fluorophenyl)-5-glycyloxymethyl oxazolidin-2-one trifluoroacetic acid], for which the MIC50 in data set [2] and in data set [3] was 1 µg/mL (≈ 2.14 µM) each time. Consider `CC(C)[C@H](N)C(=O)OC[C@H]1CN(c2ccc(-c3ccc(-c4nnnn4C)nc3)c(F)c2)C(=O)O1.Cl` [Compound 67, (R)-3-(4-(2-(1-methyltetrazol-5-yl)pyridin-5-yl)-3-fluorophenyl)-5-(L-valyloxy)methyl oxazolidin-2-one hydrochloride], for which the MIC50 stood at 0.25 µg/mL in data set [2] and 0.5 µg/mL in data set [3]. As for `Cn1nnnc1-c1ccc(-c2ccc(N3C[C@H](COP(=O)(O)O)OC3=O)cc2F)cn1` [Compound 73, mono-[(R)-[3-(4-(2-(1-methyltetrazol-5-yl)pyridin-5-yl)-3-fluorophenyl)-2-oxo-5-oxazolidinyl]methyl]phosphate], the MIC50 in data set [2] and in data set [3] was 32 µg/mL (≈ 71.1 µM) each time.

On to `Cn1nnnc1-c1ccc(-c2ccc(N3C[C@H](CO)OC3=O)cc2F)cn1` [Compound 61, (R)-3-(4-(2-(1-methyltetrazol-5-yl)pyridin-5-yl)-3-fluorophenyl)-5-hydroxymethyl oxazolidin-2-one], for which the MIC50 in data set [2] came out at 0.25 µg/mL (≈ 0.675 µM); in data set [3], 0.5 µg/mL (≈ 1.35 µM). For `Cc1nnc(-c2ccc(-c3ccc(N4C[C@H](COC(=O)[C@@H](N)C(C)C)OC4=O)cc3F)cn2)o1` [Compound 53, (R)-3-(4-(2-(2-methyl-[1,3,4]oxadiazol-5-yl)pyridin-5-yl)-3-fluorophenyl)-5-(L-valyloxy)methyl oxazolidin-2-one trifluoroacetic acid], the solubility at 2 min in data set [1] worked out at 30.3 mg/mL (≈ 64500 µM). As for `C[C@H](N)C(=O)OC[C@H]1CN(c2ccc(-c3ccc(-c4nnn(C)n4)nc3)c(F)c2)C(=O)O1` [Compound 42, (R)-3-(4-(2-(2-methyltetrazol-5-yl)pyridin-5-yl)-3-fluorophenyl)-5-(L-alanyloxy)methyl oxazolidin-2-one trifluoroacetic acid], the Solubility in data set [1] (listed as compound 42, trifluoroacetic acid) is more than 50 mg/mL; in data set [1] (trifluoroacetic acid), more than 50 mg/mL. Consider `CC(=O)NC[C@H]1CN(c2ccc(-c3ccc(N4CCC(OC(=O)CN)C4=O)nc3)c(F)c2)C(=O)O1` (stereo partly drawn) [Compound 5, (S)-3-(4-(2-(2-oxo-3-glycyloxypyrrolidine-1-yl)pyridin-5-yl)-3-fluorophenyl)-2-oxo-5-oxazolidinylmethyl acetamide trifluoroacetic acid], for which the MIC50 in data set [2] was determined as 0.25 µg/mL (≈ 0.515 µM); in data set [3], 0.5 µg/mL (≈ 1.03 µM). In the same order, the values of `CNC[C@H]1CN(c2ccc(-c3ccc(-c4nnn(C)n4)nc3)c(F)c2)C(=O)O1` [Compound 41] are 8 µg/mL (≈ 20.9 µM) and 4 µg/mL (≈ 10.4 µM). `CC(=O)NC[C@H]1CN(c2ccc(-c3ccc(N4CC(COC(=O)CN)CC4=O)nc3)c(F)c2)C(=O)O1` (stereo partly drawn) [Compound 1, (S)-3-(4-(2-(2-oxo-4-glycyloxymethylpylolidin-1-yl)pyridin-5-yl)-3-fluorophenyl)-2-oxo-5-oxazolidinylmethyl acetamide trifluoroacetic acid]: the MIC50 in data set [2] was 0.25 µg/mL (≈ 0.501 µM); in data set [3], 1 µg/mL (≈ 2 µM).

`Cn1nnnc1-c1ccc(-c2ccc(N3C[C@H](COC(=O)CCN)OC3=O)cc2F)cn1` [Compound 68, (R)-3-(4-(2-(1-methyltetrazol-5-yl)pyridin-5-yl)-3-fluorophenyl)-5-(β-alanyloxy)methyl oxazolidin-2-one trifluoroacetic acid] came in with a solubility at 2 min in data set [1] of 2.6 mg/mL (≈ 5890 µM).
